Test results: article PMC2610240 (Drug metabolism and disposition: the biological fate of …, 2008)
“And” between values parts separate entries of the source, which are not always exact repeats. Equal values may be shown once.

Experiments:
[1] = biological target: T1, purified recombinant human b5R (NADH b5 reductase) (Homo sapiens, UniProt P00387); experiment: Inhibition of recombinant b5R activity; type: biochemical
T1 sequence (P00387 1-301): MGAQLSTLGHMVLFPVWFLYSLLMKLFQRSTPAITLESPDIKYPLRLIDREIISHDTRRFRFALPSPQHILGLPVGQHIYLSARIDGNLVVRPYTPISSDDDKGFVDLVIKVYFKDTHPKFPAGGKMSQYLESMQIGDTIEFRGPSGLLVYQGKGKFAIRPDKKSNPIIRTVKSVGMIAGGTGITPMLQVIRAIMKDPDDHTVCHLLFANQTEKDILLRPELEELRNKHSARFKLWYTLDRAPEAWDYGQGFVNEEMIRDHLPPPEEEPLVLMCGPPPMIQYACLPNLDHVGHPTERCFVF

[2] = biological target: T2, CPR activity in human liver microsomes (Homo sapiens, UniProt P16435); experiment: Inhibition of CPR activity in HLMs
T2 sequence (P16435 1-677): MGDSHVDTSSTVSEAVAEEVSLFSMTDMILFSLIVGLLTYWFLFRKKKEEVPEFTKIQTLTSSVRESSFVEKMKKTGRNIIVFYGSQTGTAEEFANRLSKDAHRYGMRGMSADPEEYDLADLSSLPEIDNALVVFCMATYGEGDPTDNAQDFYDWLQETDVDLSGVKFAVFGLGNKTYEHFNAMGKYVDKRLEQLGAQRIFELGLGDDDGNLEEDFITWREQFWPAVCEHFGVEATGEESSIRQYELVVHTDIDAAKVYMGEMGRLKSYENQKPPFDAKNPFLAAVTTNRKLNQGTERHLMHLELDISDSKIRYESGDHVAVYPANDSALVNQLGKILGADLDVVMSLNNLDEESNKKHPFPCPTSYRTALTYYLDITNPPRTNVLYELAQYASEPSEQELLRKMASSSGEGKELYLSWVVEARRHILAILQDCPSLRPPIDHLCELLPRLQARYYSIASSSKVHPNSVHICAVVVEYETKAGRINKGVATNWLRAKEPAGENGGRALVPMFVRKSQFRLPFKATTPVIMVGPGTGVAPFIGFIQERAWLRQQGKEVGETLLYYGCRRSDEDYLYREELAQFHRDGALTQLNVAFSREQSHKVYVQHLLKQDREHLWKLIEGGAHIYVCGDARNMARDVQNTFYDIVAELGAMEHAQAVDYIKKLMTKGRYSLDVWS

[3] = biological target: T3, b5R activity in human liver microsomes (Homo sapiens, UniProt P00387); experiment: Inhibition of b5R activity in HLMs; type: biochemical
T3 sequence (P00387 1-301): T1 sequence (P00387 1-301)

[4] = tested on: CPR activity in rat liver microsomes; conditions: concentrations up to 10 mM, ref Lee and Kariya, 1986; cited from earlier work
[5] = tested on: b5R activity in rat liver microsomes; conditions: concentrations up to 10 mM, ref Lee and Kariya, 1986; cited from earlier work
[6] = biological target: T4, purified recombinant human CPR (NADPH-cytochrome P450 reductase) (Homo sapiens, UniProt P16435); experiment: Inhibition of recombinant CPR activity; conditions: recombinant enzyme
T4 sequence (P16435 1-677): T2 sequence (P16435 1-677)

[7] = biological target: T4, purified recombinant human CPR (NADPH-cytochrome P450 reductase); experiment: biochemical

SMILES | decrease in b5R activity ([1]; recombinant enzyme, 4 mM PTU, 15 min pre-incubation at 25°C) [%] | reduction in CPR activity ([2]; 4 mM PTU (highest concentration)) | reduction in b5R activity ([3]; 4 mM PTU (highest concentration), 15 min pre-incubation at 25°C) [%] | maximal inhibition of b5R activity ([3]; over 1 to 4 mM PTU) | effect on CPR activity [4] | effect on b5R activity [5] | decrease in CPR activity ([6]; 4 mM PTU) [%] | IC50 [1] [µM] | reduction in b5R activity ([1]; recombinant enzyme, 2 mM α-lipoic acid, maximal effect) [%] | IC50 [7] [µM] | reduction in CPR activity ([2]; 2 mM α-lipoic acid) [%] | reduction in b5R activity ([3]; 2 mM α-lipoic acid) [%] | reduction in CPR activity ([6]; 2 mM α-lipoic acid, maximal effect) [%]
CCCc1cc(=O)[nH]c(=S)[nH]1 [PTU, 6-propyl-2-thiouracil] | 78 | 16% and < 20% | 41 | about 40% | without reducing CPR activity | selectively inhibit b5R activity | 51 |  |  |  |  |  | 
O=C(O)CCCCC1CCSS1 (stereo not drawn) [α-lipoic acid] |  |  |  |  |  |  |  | 50 ± 50 | 84 | 140 ± 20 | 76 | 54 | 92
